Experimental data from article PMC9648375, “Identification of the first-in-class dual inhibitors of human DNA topoisomerase IIα and indoleamine-2,3-dioxygenase 1 (IDO 1) with strong anticancer properties” (Journal of Enzyme Inhibition and Medicinal Chemistry, 2022).
In brackets after ≈: the same amount, converted by molar mass. Read-outs that look alike come from different tables or passages of the source.

What was measured:
[1] = molecular target: T1, indoleamine-2,3-dioxygenase 1 (IDO 1) (Homo sapiens, UniProt P14902); assay: Universal IDO1/IDO2/TDO Inhibitor Screening Assay Kit; assay type: biochemical; details: fixed dose of 50 µg/ml; read-out: IDO 1 inhibition (%) ± SD
T1 construct: purchased BPS Bioscience, Inc. (San Diego, CA, USA)
T1 sequence (P14902 whole entry): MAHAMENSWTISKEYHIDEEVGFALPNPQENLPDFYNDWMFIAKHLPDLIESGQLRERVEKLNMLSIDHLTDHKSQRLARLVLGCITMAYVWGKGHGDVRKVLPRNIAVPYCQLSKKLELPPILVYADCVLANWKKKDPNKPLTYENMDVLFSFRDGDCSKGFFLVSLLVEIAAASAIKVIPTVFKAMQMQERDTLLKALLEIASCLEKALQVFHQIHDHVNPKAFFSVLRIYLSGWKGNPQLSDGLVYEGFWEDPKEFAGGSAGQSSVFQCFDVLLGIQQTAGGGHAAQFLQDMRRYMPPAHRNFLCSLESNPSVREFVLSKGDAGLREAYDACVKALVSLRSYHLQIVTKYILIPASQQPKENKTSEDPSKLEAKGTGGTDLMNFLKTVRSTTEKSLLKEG
Experimental: Inhibitory effects of the investigated compounds were determined using Universal IDO1/IDO2/TDO Inhibitor Screening Assay Kit from BPS Bioscience, Inc. (San Diego, CA, USA). This colorimetric assay is based on the measurement of the ability of IDO1, IDO2 and TDO to convert L-tryptophan into N-formylkynurenine (NFK). The experiments were performed according to the manufacturer’s guidelines. The final concentration of the compounds in the reaction mixture was 50 µg/mL. The amount of NFK was measured spectrophotometrically at 320 nm using Epoch BioTek microplate reader (BioTek Instruments, Inc., Winooski, VT, USA). The samples were run in triplicate and the results were expressed as mean ± SD.

[2] = system: MCF-7 (estrogen-dependent human breast cancer cells); assay: MTT assay; assay type: cell-based; details: MCF7, MCF-7, MTT, read-out: IC50, cytotoxicity
Experimental: (§1) Therefore, the whole set of compounds were tested by using MTT assay in order to check their overall cytotoxic effect. The growth of cells was monitored after 24 and 48 h of incubation with the increased concentrations (1–100 µg/ml) of the thiosemicarbazide derivatives. […] This confirms that the compounds tested combine different mechanisms of anticancer activity, and DNA topoisomerase II inhibition is only one of them.
(§2) Cytotoxicity of the synthesised compounds were examined against a panel of the cancer cell lines, MCF-7 (estrogen-dependent human breast cancer cells), MDA-MB-231 (oestrogen-independent human breast cancer cells), SCC- 25 (squamous cell carcinoma of the tongue), FaDu (squamous cell carcinoma of the pharynx), A- 549 (human lung carcinoma), AGS (human gastric adenocarcinoma), LS-180, HT-29 (colon cancer cell lines), T98G (glioblastoma cells), A375 (melanoma cells). Human embryonic kidney (HEK-293) cells and human normal skin fibroblasts (CRL-2072) were used as reference cell lines. The investigated cell lines were obtained from American Type Culture Collection (ATCC; Manassas, VA, USA). A375, MCF-7, MDA-MB-231, T98G cells were cultured in Dulbecco’s Modified Eagle’s Medium (DMEM) (Sigma Aldrich, St. Louis, MO, USA) supplemented with 10% heat inactivated foetal bovine serum (FBS), penicillin (100 U/mL), and streptomycin (100 μg/mL). SCC-25 cells were cultured in 1:1 mixture of Dulbecco’s modified Eagle’s medium and Ham’s F12 Medium (Sigma Aldrich, St. Louis, MO, USA) supplemented with 400 ng/ml hydrocortisone, 10% FBS, penicillin (100 U/mL), and streptomycin (100 μg/mL). A549 and AGS cells were maintained in F-12K Medium (Sigma Aldrich, St. Louis, MO, USA). LS-180 and FaDu cells were cultured in Eagle’s Minimum Essential Medium. HT-29 cells were maintained in McCoy’s 5 A Medium (Sigma Aldrich, St. Louis, MO, USA) supplemented with 10%FBS, penicillin (100 U/mL), and streptomycin (100 μg/mL). All the cells were maintained at 37 °C in a humidified atmosphere of 5% CO2.
(§3) The synthesised compounds were dissolved in DMSO in order to obtain stock solutions. At the day of the experiment, the suspension of cells (1 × 10^5 cells/mL) in the respective medium was applied to a 96-well plate at 100 μL per well. […] The control cells were cultured only with a medium containing 2% FBS. Cytotoxicity of DMSO was also checked at concentrations present in respective dilutions of stock solution. After 24 h (or 48 h) of incubation, 15 μL of MTT working solution (5 mg/mL in PBS) was added to each well. The plate was incubated for 3 h. Subsequently, 100 μL of 10% SDS solution was added to each well. Cells were incubated overnight at 37 °C to dissolve the precipitated formazan crystals. The concentration of the dissolved formazan was evaluated by measuring the absorbance at λ = 570 nm, using a microplate reader (Epoch, BioTek Instruments, Inc., Winooski, VT, USA). At least two independent experiments were performed in triplicates. The results of the MTT assay were expressed as mean ± SD. […] IC50 values of the investigated derivatives and standards were calculated using the IC50 calculator.[23]

[3] = system: MDA-MB-231 (estrogen-independent human breast cancer cells); assay: MTT assay; assay type: cell-based; details: MDA-MB-231, MTT, read-out: IC50, cytotoxicity
Experimental: as §1, §2, §3

[4] = MTT assay; assay type: cell-based; details: human, HEK-293 cells (normal reference cell line), HEK-293 (normal cells), read-out: IC50, cytotoxicity
Experimental: as §1, §2, §3

[5] = system: LS180 (colon cancer cell line); assay: MTT assay; assay type: cell-based; details: Homo sapiens, read-out: IC50, cytotoxicity
Experimental: as §1, §2, §3

[6] = system: FaDu (squamous cell carcinoma of the pharynx); assay: MTT assay; assay type: cell-based; details: Homo sapiens, read-out: IC50, cytotoxicity
Experimental: as §1, §2, §3

[7] = system: T98G (glioblastoma cells); assay: MTT assay; assay type: cell-based; details: Homo sapiens, read-out: IC50, cytotoxicity
Experimental: as §1, §2, §3

[8] = system: A375 (melanoma cells); assay: MTT assay; assay type: cell-based; details: Homo sapiens, read-out: IC50, cytotoxicity
Experimental: as §1, §2, §3

[9] = system: HT-29 (colon cancer cell line); assay: MTT assay; assay type: cell-based; details: Homo sapiens, HT-29, MTT, read-out: IC50, cytotoxicity
Experimental: as §1, §2, §3

[10] = system: AGS (human gastric adenocarcinoma); assay: MTT assay; assay type: cell-based; details: read-out: IC50, cytotoxicity
Experimental: as §1, §2, §3

[11] = system: SCC-25 (squamous cell carcinoma of the tongue); assay: MTT assay; assay type: cell-based; details: Homo sapiens, SCC-25, MTT, read-out: IC50, cytotoxicity
Experimental: as §1, §2, §3

[12] = system: A549 (human lung carcinoma); assay: MTT assay; assay type: cell-based; details: read-out: IC50, cytotoxicity
Experimental: as §1, §2, §3

[13] = molecular target: T2, human DNA topoisomerase IIα (Homo sapiens, UniProt P11388); assay: Human topoisomerase IIα relaxation assay; assay type: biochemical; details: agarose gel, densitometry; read-out: IC50 ± SD, relaxation activity of human DNA topoisomerase IIα
T2 construct: purchased Inspiralis Ltd, Norwich, UK
T2 sequence (P11388 whole entry): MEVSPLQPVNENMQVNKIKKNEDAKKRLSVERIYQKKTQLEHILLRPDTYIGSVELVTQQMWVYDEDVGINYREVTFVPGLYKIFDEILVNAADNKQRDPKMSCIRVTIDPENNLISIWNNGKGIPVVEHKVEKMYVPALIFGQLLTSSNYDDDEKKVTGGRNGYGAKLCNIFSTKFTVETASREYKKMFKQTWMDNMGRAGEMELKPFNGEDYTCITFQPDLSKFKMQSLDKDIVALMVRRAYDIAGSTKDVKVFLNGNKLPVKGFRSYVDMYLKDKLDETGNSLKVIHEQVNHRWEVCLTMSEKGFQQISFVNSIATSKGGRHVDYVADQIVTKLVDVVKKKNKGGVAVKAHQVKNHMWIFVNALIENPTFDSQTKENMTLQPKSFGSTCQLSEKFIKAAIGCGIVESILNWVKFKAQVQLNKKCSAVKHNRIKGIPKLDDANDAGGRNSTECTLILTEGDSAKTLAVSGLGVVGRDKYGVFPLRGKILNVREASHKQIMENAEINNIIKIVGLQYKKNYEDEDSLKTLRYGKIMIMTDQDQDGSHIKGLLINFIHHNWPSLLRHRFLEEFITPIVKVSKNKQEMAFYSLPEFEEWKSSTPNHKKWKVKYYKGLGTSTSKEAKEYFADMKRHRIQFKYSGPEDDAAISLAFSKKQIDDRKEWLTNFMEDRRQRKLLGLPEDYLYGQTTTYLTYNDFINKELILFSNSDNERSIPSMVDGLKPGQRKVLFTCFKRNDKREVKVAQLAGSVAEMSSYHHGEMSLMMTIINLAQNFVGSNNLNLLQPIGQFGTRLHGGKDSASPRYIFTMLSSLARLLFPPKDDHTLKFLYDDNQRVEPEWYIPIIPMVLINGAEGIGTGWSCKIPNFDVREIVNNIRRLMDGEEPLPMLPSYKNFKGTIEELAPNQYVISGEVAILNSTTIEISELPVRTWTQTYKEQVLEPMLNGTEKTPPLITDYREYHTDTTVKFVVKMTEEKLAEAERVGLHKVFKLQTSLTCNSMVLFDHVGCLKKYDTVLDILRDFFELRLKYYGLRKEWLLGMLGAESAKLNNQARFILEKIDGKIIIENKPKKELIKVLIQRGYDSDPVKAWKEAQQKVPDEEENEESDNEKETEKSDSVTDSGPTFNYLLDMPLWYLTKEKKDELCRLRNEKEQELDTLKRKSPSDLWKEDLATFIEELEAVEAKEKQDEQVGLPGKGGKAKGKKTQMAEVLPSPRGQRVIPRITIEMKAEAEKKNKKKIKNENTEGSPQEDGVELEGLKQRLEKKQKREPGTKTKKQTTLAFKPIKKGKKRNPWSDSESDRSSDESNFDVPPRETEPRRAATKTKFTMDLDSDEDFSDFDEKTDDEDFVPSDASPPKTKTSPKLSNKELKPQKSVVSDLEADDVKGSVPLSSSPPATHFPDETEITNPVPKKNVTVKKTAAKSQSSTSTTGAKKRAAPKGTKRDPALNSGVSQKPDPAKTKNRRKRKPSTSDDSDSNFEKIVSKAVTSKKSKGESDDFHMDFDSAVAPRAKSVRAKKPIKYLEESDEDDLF
Experimental: As relaxation of supercoiled DNA (scDNA) is one of numerous functions of topoisomerase IIα, so the appearance/disappearance of relaxed DNA bands during agarose gel electrophoresis can be used to identify compounds that inhibit the enzyme.
Briefly, the increased concentrations of the compounds were mixed with the reaction mixture, incubated according to the protocol and, after reaction termination, the samples were analysed by electrophoresis using 1% agarose gel containing 0.5 mg/mL of ethidium bromide in Tris-Acetate-EDTA (TAE) buffer. Visualisation of the bands was performed using an enhanced chemiluminescence system (Syngene G:BOX Chemi XT4, Cambridge, UK). For the quantitative determination of topoisomerase II inhibition, images were densitometrically scanned.
The inhibition of topoisomerase II was calculate from the equation: % Inhibition=Intensity of compound−treated DNA/Intensity of vehicle−treated control DNA×100

Structure (SMILES)	IC50 ([2]; 24h) [µg/mL]	IC50 ([2]; 48h) [µg/mL]	IC50 ([3]; 24h) [µg/mL]	IC50 ([3]; 48h) [µg/mL]	IC50 at 24 h [4] [µg/mL]	IC50 at 48 h [4] [µg/mL]	IC50 ([5]; 24h) [µg/mL]	IC50 ([5]; 48 h) [µg/mL]	IC50 ([6]; 24h) [µg/mL]	IC50 ([6]; 48 h) [µg/mL]	IC50 ([7]; 24h) [µg/mL]	IC50 ([7]; 48h) [µg/mL]	IC50 ([8]; A-375, 24h) [µg/mL]	IC50 ([8]; A-375, 48 h) [µg/mL]	IC50 ([9]; 24h) [µg/mL]	IC50 ([9]; 48 h) [µg/mL]	IC50 ([10]; 24h) [µg/mL]	IC50 ([10]; 48 h) [µg/mL]	IC50 ([11]; 24h) [µg/mL]	IC50 ([11]; 48 h) [µg/mL]	further results
CC(C)c1cccc(C(C)C)c1NC(=S)NNC(=O)Cc1cccc2ccccc12 [Compound 1, 4-(2,6-Diisopropylphenyl)-1-[(naphth-1-yl)acetyl]thiosemicarbazide]	9.82 (≈ 23.4 µM)	8.45 (≈ 20.1 µM)	9.21 (≈ 21.9 µM)	8.04 (≈ 19.2 µM)	17.6 (≈ 41.9 µM)	9.61 (≈ 22.9 µM)	4.57 (≈ 10.9 µM)	2.54 (≈ 6.05 µM)	7.26 (≈ 17.3 µM)	2.01 (≈ 4.79 µM)	6.98 (≈ 16.6 µM)	2.27 (≈ 5.41 µM)	4.57 (≈ 10.9 µM)	1.82 (≈ 4.34 µM)	8.96 (≈ 21.4 µM)	5.33 (≈ 12.7 µM)	5.92 (≈ 14.1 µM)	2.69 (≈ 6.41 µM)	7.06 (≈ 16.8 µM)	5.22 (≈ 12.4 µM)	inhibition at 50 µg/mL [1]: 91.4 ± 1.82%; IC50 ([12]; 24h): 3.87 µg/mL (≈ 9.22 µM); IC50 ([12]; 48h): 2.27 µg/mL (≈ 5.41 µM); IC50 [13]: 71 ± 4.81 µM
O=C(Cc1cccc2ccccc12)NNC(=S)Nc1ccc(N=Nc2ccccc2)cc1 [Compound 2, 4-(4-Phenylazophenyl)-1-[(naphth-1-yl)acetyl]thiosemicarbazide]	9.18 (≈ 20.9 µM)	8.85 (≈ 20.1 µM)	7.64 (≈ 17.4 µM)	7.07 (≈ 16.1 µM)	15.6 (≈ 35.5 µM)	10 (≈ 22.8 µM)	2.87 (≈ 6.53 µM)	2.24 (≈ 5.1 µM)	2.75 (≈ 6.26 µM)	2.54 (≈ 5.78 µM)	5.53 (≈ 12.6 µM)	4.85 (≈ 11 µM)	8.96 (≈ 20.4 µM)	2.47 (≈ 5.62 µM)	8.96 (≈ 20.4 µM)	5.33 (≈ 12.1 µM)	5.32 (≈ 12.1 µM)	2.96 (≈ 6.73 µM)	4.73 (≈ 10.8 µM)	3.12 (≈ 7.1 µM)	inhibition at 50 µg/mL [1]: 41.4 ± 2.47%; IC50 ([12]; 24h): 5.84 µg/mL (≈ 13.3 µM); IC50 ([12]; 48h): 5.78 µg/mL (≈ 13.1 µM); IC50 [13]: 43.1 ± 2.27 µM
O=C(NNC(=S)Nc1ccc(N=Nc2ccccc2)cc1)c1ccccc1[N+](=O)[O-] [Compound 3, 4-(4-Phenylazophenyl)-1-(2-nitrobenzoyl)thiosemicarbazide]	7.67 (≈ 18.2 µM)	5.48 (≈ 13 µM)	10.5 (≈ 24.9 µM)	6.02 (≈ 14.3 µM)	27.5 (≈ 65.5 µM)	9.19 (≈ 21.9 µM)	3.12 (≈ 7.42 µM)	2.7 (≈ 6.42 µM)	2.49 (≈ 5.92 µM)	2.18 (≈ 5.18 µM)	3.35 (≈ 7.97 µM)	2.94 (≈ 6.99 µM)	1.8 (≈ 4.28 µM)	0.56 (≈ 1.33 µM)	7.37 (≈ 17.5 µM)	3.77 (≈ 8.97 µM)	5.54 (≈ 13.2 µM)	4.31 (≈ 10.3 µM)	4.76 (≈ 11.3 µM)	3.87 (≈ 9.2 µM)	inhibition at 50 µg/mL [1]: 21.4 ± 1.05%; IC50 ([12]; 24h): 5.37 µg/mL (≈ 12.8 µM); IC50 ([12]; 48h): 5.13 µg/mL (≈ 12.2 µM); IC50 [13]: 76.8 ± 4.85 µM
COc1cc([C@@H]2c3cc4c(cc3[C@@H](O[C@@H]3O[C@@H]5CO[C@@H](C)O[C@H]5[C@H](O)[C@H]3O)[C@H]3COC(=O)[C@H]23)OCO4)cc(OC)c1O [Etoposide, etoposide, reference compound]	> 100	6.15 (≈ 10.4 µM)	> 100	40.3 (≈ 68.5 µM)	37.9 (≈ 64.3 µM)	29.1 (≈ 49.5 µM)	> 100	11.7 (≈ 19.9 µM)	12.5 (≈ 21.3 µM)	10.7 (≈ 18.2 µM)	> 100	17.1 (≈ 29 µM)	10.2 (≈ 17.3 µM)	6.48 (≈ 11 µM)	94.5 (≈ 161 µM)	11.3 (≈ 19.2 µM)	50.8 (≈ 86.3 µM)	29.8 (≈ 50.6 µM)	59.1 (≈ 100 µM)	23.7 (≈ 40.3 µM)	IC50 ([12]; 24h): > 100 µg/mL; IC50 ([12]; 48h): 15.6 µg/mL (≈ 26.5 µM)
